Counter-ions that a name gives are not always drawn.
Experiments:
Escherichia coli 10536 = experiment: Protective Activity in Mice; type: in vivo; settings: S.C., single dose one hour after intraperitoneal infection
Protocol: (§1) Verdamicin I was tested against four (4) species of infectious bacteria in mice and was administered as a single subcutaneous dose one (1) hour after infection via intraperitoneal injection of a lethal quantity of pathogen.
(§2) Results obtained with gentamicin are set for comparison.

[1] = test system: Pseudomonas aeruginosa 8689; experiment: Protective Activity in Mice; type: in vivo; settings: S.C., single dose one hour after intraperitoneal infection
Protocol: as §1, §2

[2] = test system: Staphylococcus aureus Gray; experiment: Protective Activity in Mice; type: in vivo; settings: S.C., single dose one hour after intraperitoneal infection
Protocol: as §1, §2

Streptococcus pyogenes C = experiment: Protective Activity in Mice; type: in vivo; settings: S.C., single dose one hour after intraperitoneal infection
Protocol: as §1, §2

[3] = test system: Staphylococcus aureus ATCC 6538P; experiment: Disc plate microbiological assay
Source text: Th microbiological assay of the antibiotic substances is a disc plate assay using Staphylococcus aureus ATCC 6538P as test organism.

in vivo = settings: mouse, iv
[4] = pKa (Chemical and Physical Properties of Verdamicin I); type: physicochemical; settings: base
Source text: In table VI below are set forth physical properties of […] as the hydrated free nitrogen base and as the sulfuric acid addition salt (sulfate).

[5] = test system: gram positive and gram-negative bacteria; experiment: In vitro antibacterial activity, Verdamicin I (in words); type: cell-based
[6] = test system: gram-positive and gram-negative organisms; experiment: In vivo antibacterial activity in mice (in words)
Protocol: as §1, §2

Compound: gentamicin [reference compound]
- PD50 (Escherichia coli 10536): 1.7 mg/kg
- PD50 [1]: 1.7 mg/kg
- PD50 [2]: 2.4 mg/kg
- PD50 (Streptococcus pyogenes C): 5.0 mg/kg

Compound: CN[C@@H]1[C@@H](O)[C@@H](O[C@@H]2[C@@H](O)[C@H](O[C@H]3OC(C(C)N)=CC[C@H]3N)[C@@H](N)C[C@H]2N)OC[C@]1(C)O (stereo partly drawn) [Verdamicin I Sulfate]
- potency against its own base as the comparison standard ([3]; own base as comparison standard): 695 meg/mg

Compound: CN[C@@H]1[C@@H](O)[C@@H](O[C@@H]2[C@@H](O)[C@H](O[C@H]3OC(C(C)N)=CC[C@H]3N)[C@@H](N)C[C@H]2N)OC[C@]1(C)O (stereo partly drawn) [Verdamicin I]
- ED50 (Escherichia coli 10536; Escherichia coli, 10536, sc, 1 h, read-out: PD50): 1.5 mg/kg
- ED50 ([1]; Pseudomonas aeruginosa, 8689, sc, 1 h, read-out: PD50): 2 mg/kg
- ED50 ([2]; Staphylococcus aureus, sc, 1 h, read-out: PD50): 2.5 mg/kg
- ED50 (Streptococcus pyogenes C; Streptococcus pyogenes, sc, 1 h, read-out: PD50): 1 mg/kg
- LD50 (in vivo): 75 mg/kg
- pKa [4]: 8.1
- antibacterial activity in vitro [5]: broad spectrum of antibacterial activity
- in vivo antibacterial activity [6]: potent antibacterial agent
- dose response curve ([3]; gentamicin assay): parallel to that of gentamicin
- zone of inhibition ([3]; one meg. of standard): 17.0 ± 1.3 mm

Source: patent publication US3988316A, “Antibiotics sisomicin and verdamicin I and complex containing same” (Schering Corporation, priority 1975, dated 1976)
